The values that follow come from patent publication US20040082623A1, “Fmoc-l-leucine and derivatives thereof as ppar-gamma agonists” (priority 2003, published 2004).

One series deals with TNBS-treated Balb/c mice. The series is described as follows: TNBS-induced colitis in Balb/c mice. The format is in vivo. The conditions noted are these: 50 mg/kg/day. How it is done: FIG. 9: F-L-Leu protects against colon inflammation in TNBS-treated Balb/c Mice. A: Ameho histologic scores (left panel) and survival rate (right panel) in TNBS-treated mice injected either with DMSO or F-L-Leu (50 mg/kg/day). B: TNFα and IL-1β mRNA levels in the colon of TNBS-treated mice injected with DMSO or F-L-Leu (50 mg/kg/day). Results are expressed as mean±SEM.
RNA was isolated from 3T3-L1 cells by the acid guanidinium ? thiocyanate/phenol/chloroform method (Chomczynski and Sacchi, 1987). Northern blot analysis of total cellular RNA was performed as described (Auwerx et al., 1989) ? Lipoprotein lipase (LPL), aP2 and 36B4 were used as probes (Graves et al., 1992 ? Laborda, 1991; Lefebvre et al., 1997). For RT-competitive PCR, total RNA (5-10 μg ? was reverse transcribed into complementary DNA (cDNA) (Desreumaux et al., 1999 ? Fajas et al., 1997). The RT reaction mixture was amplified by PCR using sense an ? antisense primers specific for β-actin, TNFα and IL-1β. The samples were subjected t ? 40 PCR cycles, consisting of denaturation for 1 min at 94° C., primer annealing for ? min at 52-58° C., and primer extension for 1.5 min at 72° C. using a Gene Amp PCR ? System 9700 (Perkin-Elner Corporation, Foster City, Calif.). The quantity of mRNA was expressed as the number of TNFα or IL-1β cDNA per β-actin cDNA molecules.
Male Balb/c mice (8 per group) were used for the colitis studies (Jackson laboratories, Bar Harbor, Me.). Colitis was induced by administration of 40 μl of a solution of TNBS (150 mg/kg, Fluka, Saint Quentin Fallavier, France) dissolved in NaCl 0.9% and mixed with an equal volume of ethanol (50% ethanol). This solution was administered intrarectally via a 3.5 F catheter (Ref EO 3416-1, Biotrol, Chelles, France) inserted 4 cm proximal to the anus in anesthesized mice [Xylasine (50 mg/kg of Rompun® 2%, Bayer Pharma, Puteaux, France) and Ketamine (50 mg/kg of Imalgene® 1000, Rhône Mérieux, France)]. Animals were sacrified by cervical dislocation under ether anesthesia two days after TNBS administration. The colon was quickly removed, opened, washed. A 2 cm colonic specimen located precisely 2 cm above the anal canal was dissected systematically in 4 parts. One part was fixed overnight in 4% paraformaldehyde acid at 4° C., dehydrated in alcohol and embedded in paraffin. Sections (5 μm) were then deparaffined with xylene and rehydrated by ethanol treatment. Stained sections with haematoxylin-eosin were examined blindly by a pathologist and scored according to the Ameho criteria (Ameho et al., 1997). The other parts of the colon were used for RNA isolation for the quantification of TNFα and IL1β mRNA expression.

The target of the next series is T1, PPARγ2 (Homo sapiens, UniProt P37231).
T1 sequence (P37231 1-505): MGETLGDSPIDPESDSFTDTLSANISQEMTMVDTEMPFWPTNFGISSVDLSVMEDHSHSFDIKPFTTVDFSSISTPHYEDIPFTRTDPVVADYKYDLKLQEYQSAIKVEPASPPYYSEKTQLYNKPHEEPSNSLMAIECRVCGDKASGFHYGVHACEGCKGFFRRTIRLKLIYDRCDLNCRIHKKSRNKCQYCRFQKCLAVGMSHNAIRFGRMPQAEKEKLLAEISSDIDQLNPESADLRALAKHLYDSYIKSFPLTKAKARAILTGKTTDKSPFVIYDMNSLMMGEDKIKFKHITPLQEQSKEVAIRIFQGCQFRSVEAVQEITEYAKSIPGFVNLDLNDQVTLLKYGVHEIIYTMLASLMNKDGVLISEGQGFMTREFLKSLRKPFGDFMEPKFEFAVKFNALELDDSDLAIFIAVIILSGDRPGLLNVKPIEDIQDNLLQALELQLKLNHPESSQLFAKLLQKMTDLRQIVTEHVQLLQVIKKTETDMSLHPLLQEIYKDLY
The series is described as follows: Transient transfection, PPARγ2 reporter in CV1 cells. The format is cell-based. Further details: a construct containing the entire cDNA of the human PPARγ2 (hPPARγ2); expressed in transfected cells; host or cells: Hep G2, RK13 or CV1 cells. The conditions noted are these: simian renal cells CV1. The protocol: RK13 cells (A and D), CV1 cells (B) or Hep G2 cells (C) were co-transfected with an expression vector for PPARγ2 (0.1 μg/well), pGL3-(Jwt)3TKLuc reported construct (0.5 μg/well), and pCMV-βGal (0.5 μg/well), as a control of transfection efficiency (0.5 μg/well). They were then grown during 24 h in the presence or absence of indicated compound. Activation is expressed as relative luciferase activity/β ? galactosidase activity. Each point was performed in triplicate, and each figure i ? representative of four independent experiments.
The CV1, RK-13, and Hep G2 cell lines were obtained from ATCC (Rockville, Md.). Cells were maintained in Dulbecco's modified Eagle's minimal essential medium (DMEM) supplemented with 10% fetal calf serum (FCS), L-glutamine, and antibiotics. Transfections with chloramphenicol acetyltransferase (CAT) or luciferase (luc.) reporter constructs were carried out exactly as described previously (Schoonjans et al., 1996). The pGL3-(Jwt)3TKLuc and the pGL3-(Jwt)3TKCAT reporter constructs contain both three tandem repeats of the J site of the apolipoprotein A-II promoter cloned upstream of the herpes simplex virus thymidine kinase (TK) promoter and the luciferase or the CAT reporter genes respectively (Vu-Dac et al., 1995). […]

A further series deals with 3T3-L1 cells. The series is described as follows: Adipocyte differentiation of 3T3-L1 cells (Northern blot, Oil Red O). In kind it is cell-based, murine.
The mark [1] stands for this setting: 3T3-L1, 10^−5 M, extent close to rosiglitazone 10^−7 M.

Protocol for 3T3-L1 cells: Confluent 3T3-L1 cells were incubated with 2 μM insulin, 1 μM dexamethasone, and 0.25 mM isobuthyl methyl xanthine for two days. […] A: RNA was isolated from 3T3-L1 cells after different times of differentiation induction. Blots were hybridized with 36B4 (to control for RNA loading); LPL or aP2 cDNAs. B: Cells were stained with Oil Red O after 6 days. LPL: lipoprotein lipase.
3T3-L1 cells (ATCC, Rockville, Md.) were grown to confluence in medium ? (Dulbecco's modified Eagle's Medium with 10% fetal calf serum, 100 units/n ? penicillin, and 100 μg/ml streptomycin). Confluent cells were incubated in medium ? containing 2 μM insulin, 1 μM dexamethasone, and 0.25 mM isobuthyl meth ? xanthine for two days. Then, the cells were incubated in medium A in presence ? absence of PPARγ y agonist for 4 days, changing the medium every 2 day ? Adipogenesis was evaluated by analysis of the expression of adipocyte-specif ? markers and by staining of lipids with Oil Red O (Chawla and Lazar, 1994).
Adipogenesis was monitored by analysis of lipoprotein lipase (LPL) and aP2 mRNA levels as markers of adipocyte differentiation and by studying morphological changes associated with the differentiation process.
Protocol for db/db mice: Intraperitoneal glucose tolerance test (IPGTT) in C57BL/6j (A) or db/db (B) mice 10 to 12 weeks old (n=8).
All mice were maintained in a temperature-controlled (25° C.) facility with a strict 12 h ? light/dark cycle and were given free access to food (standard mice chow; DO4, UAR ? France) and water.
C57B1/6J and db/db mice (8 per group) were obtained through the Janvier laboratorie ? (Laval-Le Genest, France).

For the molecule `CC(C)CC(NC(=O)OCC1c2ccccc2-c2ccccc21)C(=O)O` [F-L-Leu, N-(9-fluroroenylmethyloxycarbonyl)-L-Leucine], in the series with TNBS-treated Balb/c mice, the Ameho histologic score entry is listed as “reduced significantly”, the “IL-1β mRNA levels in colon” value is reported as “significant decrease” and the “TNFα mRNA levels in colon” value is “significant decrease”. Moreover, in the series on TNBS-treated Balb/c mice (4 days, two days after TNBS, control 76%), the survival rate was found to be 100%. Moreover, the “concentration required for optimal PPARγ activation” value on PPARγ2 is 10^−5 M. Besides, in the series with 3T3-L1 cells (setting [1]), the “LPL mRNA levels” value was “significantly stimulated” and the “aP2 mRNA levels” value is on record as “significantly stimulated”. In the series with 3T3-L1 cells (3T3-L1, 6 days, F-L-Leu 10^−5 M, rosiglitazone 10^−7 M), the “neutral lipid accumulation (Oil Red O staining)” value is listed as “capable of inducing neutral lipid accumulation”. In the series on db/db mice (data not shown), the “liver weight relative to control or rosiglitazone-treated mice” value is “tendency to diminution of the liver weight”. Also, the “insulin sensitivity compared with an equivalent dose of rosiglitazone” value in the series on db/db mice (db/db mice, 1 mg/kg/day as printed) was “improved insulin sensitivity more dramatically”. In addition, the “maximal glycemia in IPGTT” value in the series with db/db mice (db/db, 10 mg/kg/day i.p., 7 days, DMSO control 500) was determined as 420 mg/dL. Also, in the series on db/db mice (db/db, 10 mg/kg/day, 7 days), the “time of maximal glucose level after glucose injection” value is 20 min and the “time to decrease to normal (100 mg/dl) glucose values” is at most 120 min. Also, in the series with db/db mice (db/db, 7 days treatment, DMSO group 180), the “fasting serum insulin levels (mean)” value was 70 μUI/mL.
